Data reported in patent US10336682B1, “Hydroxytyrosol shikimic acid ester for treating cardiovascular deceases and a method of preparing the same” (SHAANXI UNIVERSITY OF SCIENCE AND TECHNOLOGY, priority 2019, dated 2019).

Legend:
prostaglandin E2 (PGE2) = assay: Measurement of PGE2 in rat plasma after intragastric administration; format: in vivo, SD rats; details: for PGE2 level in rat plasma: after 20 days, male SD rats
Excerpt: (§1) Measurement of thromboxane B2 (TXB2), 6-keto prostaglandin F1a (6-Ke-PGF1a) and prostaglandin E2 (PGE2) in rat plasma by enzyme-linked immunosorbent assay
(§2) Experimental materials: clean grade SD rats, body weight 150-250 g, male; TXB2 radioimmunoassay kit, 6-Ke-PGF1a radioimmunoassay kit, PGE2 radioimmunoassay kit, Shanghai Bairui Biotechnology Co., Ltd.
(§3) Experimental methods: 32 rats were randomly divided into 4 groups, 8 rats in each group. After 2 days of normal feeding, blood was taken from the jugular vein of each rat, and the plasma was separated and frozen at −20° C. On the next day, rats in the experimental groups were intragastrically administered with low doses of hydroxytyrosol shikimic acid ester (experimental group 1), medium dose of hydroxytyrosol shikimic acid ester (experimental group 2) and high-dose hydroxytyrosol shikimic acid ester (experimental group 3) at a dose of 1 mL/100 g. Rats in the control group were intragastrically administered with the same amount of normal saline. After 20 days, blood was taken from the jugular vein of each rat, anticoagulated, and the plasma was separated and frozen at −20° C. The contents of plasma TXB2, 6-Ke-PGF1A and PGE2 in each group of rats were determined according to TXB2, 6-Ke-PGF1a and PGE2 kit methods.

thromboxane B2 (TXB2) = assay: Measurement of TXB2 in rat plasma after intragastric administration; format: in vivo, SD rats; details: for TXB2 level in rat plasma: after 20 days, male SD rats
Excerpt: as §1, §2, §3

blood clot (thrombus) = assay: Measurement of thrombus resolution rate: mouse blood clots incubated with test solution; design: species or system Kunming mice; details: for Resolution/% (thrombus resolution rate): 2 mL solution on mouse blood clot, 6 hours at 37° C.
Description: Measurement of Thrombus Resolution Rate in Mice
Experimental materials: Clean-grade Kunming mice, weighing 20-28 g each, half male and half female; urokinase (Shanghai Maclean Biotechnology Co., Ltd.)
Experimental methods: 40 healthy Kunming mice were randomly divided into 5 groups according to their body weight, 8 in each group, half male and half female. One group of mice was selected as blank control. 1 mL of blood was taken from each mouse of the blank control group. After the blood was solidified, the formed blood clot (thrombus) was rinse with physiological saline for 30 minutes, and dried and weighed. The average weight of blood clot was calculated as W. Other groups of mice were treated with the same method. The blood clots were rinsed, and placed in cryotubes. 2 mL solutions of urokinase (positive control group), a low dose of hydroxytyrosol shikimic acid ester (experiment group 1), a medium dose of hydroxytyrosol shikimic acid ester (experimental group 2), and a high dose of hydroxytyrosol shikimic acid ester (experimental group 3) were added to the blood clots. For the blank control group, an equal volume of physiological saline was added to the blood clot. After incubating for 6 hours in a 37° C. incubator, the clots were taken out and rinsed with physiological saline for 30 min. After drying and weighing, the average weight of the blood clot was recorded as G, and the resolution rate of the blood clot was calculated according to the following formula. Thrombus Resolution Rate (%)=[(W−G)/W]×100%

[1] = tested on: 6-keto prostaglandin F1a (6-Ke-PGF1a); assay: Measurement of 6-Ke-PGF1a in rat plasma after intragastric administration; format: in vivo, SD rats; details: for 6-Ke-PGF1a level in rat plasma: after 20 days, male SD rats
Excerpt: as §1, §2, §3

[2] = compared with the blank control group, 25-250 mg/Kg · d

Compound | PGE2 level in rat plasma (prostaglandin E2 (PGE2); 25 mg/Kg · d intragastric) | PGE2 level in rat plasma (prostaglandin E2 (PGE2); 50 mg/Kg · d intragastric) | PGE2 level in rat plasma (prostaglandin E2 (PGE2); 250 mg/Kg · d intragastric) | content of PGE2 in rat plasma, in words (prostaglandin E2 (PGE2); [2]) | TXB2 level in rat plasma (thromboxane B2 (TXB2); 25 mg/Kg · d intragastric) | TXB2 level in rat plasma (thromboxane B2 (TXB2); 250 mg/Kg · d intragastric) | content of TXB2 in rat plasma, in words (thromboxane B2 (TXB2); [2]) | TXB2 level in rat plasma (thromboxane B2 (TXB2); intragastric) | Resolution/% (thrombus resolution rate) (blood clot (thrombus); 2.5 mg/mL (low dose, experimental group 1)) | Resolution/% (thrombus resolution rate) (blood clot (thrombus); 5 mg/mL (medium dose, experimental group 2)) | Resolution/% (thrombus resolution rate) (blood clot (thrombus); 10 mg/mL (high dose, experimental group 3)) | blood clot resolution (thrombolytic) effect, in words (blood clot (thrombus); compared with the blank control group, 2.5-10 mg/mL) | 6-Ke-PGF1a level in rat plasma ([1]; 25 mg/Kg · d intragastric) | 6-Ke-PGF1a level in rat plasma ([1]; 50 mg/Kg · d intragastric) | 6-Ke-PGF1a level in rat plasma ([1]; 250 mg/Kg · d intragastric) | content of 6-Ke-PGF1a in rat plasma, in words ([1]; compared with the blank control group, 25-250 mg/Kg · d, no obvious dose-dependent relationship) | Resolution/% (thrombus resolution rate) (blood clot (thrombus); 0.5 U/mL)
O=C(OCCc1ccc(O)c(O)c1)C1=C[C@@H](O)[C@@H](O)[C@H](O)C1 [hydroxytyrosol shikimic acid ester] | 26.18 ± 0.21 pg/mL | 24.22 ± 0.14 pg/mL | 20.87 ± 0.19 pg/mL | reduced in a dose-dependent manner | 4.93 ± 0.12 pg/mL | 3.12 ± 0.14 pg/mL | reduced in a dose-dependent manner | 4.38 ± 0.22 pg/mL | 6.33 ± 0.19 % | 7.04 ± 0.41 % | 8.93 ± 0.45 % | significant thrombolytic effect | 76.46 ± 0.17 pg/mL | 85.40 ± 0.32 pg/mL | 81.36 ± 0.28 pg/mL | increased | –
urokinase [reference compound] | – | – | – | – | – | – | – | – | – | – | – | – | – | – | – | – | 12.38 ± 0.27 %
